Assay results: patent US20260097037A1, “FUSED RING COMPOUND HAVING GLP-1 RECEPTOR AGONIST EFFECT” (Shionogi & Co., Ltd., priority 2022, published 2026)

Biological target: T1, Human GLP-1 receptor stably expressing cells (hGLP-1R/CHO-K1 cells) (Homo sapiens, UniProt P43220)
T1 construct: expressed in transfected cells
Test: Measurement of GLP-1 receptor agonist activity (cAMP assay)
Format: cell-based
Details: for Emax: CHO-K1, maximum effect, cAMP with 2 nM human GLP-1 (7-36) = 100%, DMSO only = 0%, read-out: Emax; for EC50: increase in cAMP concentration in hGLP-1R/CHO-K1 cells, 37° C. 1 hour
How it was run: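 hGLP-1R/CHO-K1 cells (cryopreserved) incubated with compound and forskolin in HBSS with 0.1% BSA, IBMX and RO20-1724, 1 h at 37° C; cAMP read by HTRF. EC50 and Emax from cAMP rise, normalised to 2 nM human GLP-1 (7-36) (100%) and DMSO (0%).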

T1 sequence (P43220 24-463): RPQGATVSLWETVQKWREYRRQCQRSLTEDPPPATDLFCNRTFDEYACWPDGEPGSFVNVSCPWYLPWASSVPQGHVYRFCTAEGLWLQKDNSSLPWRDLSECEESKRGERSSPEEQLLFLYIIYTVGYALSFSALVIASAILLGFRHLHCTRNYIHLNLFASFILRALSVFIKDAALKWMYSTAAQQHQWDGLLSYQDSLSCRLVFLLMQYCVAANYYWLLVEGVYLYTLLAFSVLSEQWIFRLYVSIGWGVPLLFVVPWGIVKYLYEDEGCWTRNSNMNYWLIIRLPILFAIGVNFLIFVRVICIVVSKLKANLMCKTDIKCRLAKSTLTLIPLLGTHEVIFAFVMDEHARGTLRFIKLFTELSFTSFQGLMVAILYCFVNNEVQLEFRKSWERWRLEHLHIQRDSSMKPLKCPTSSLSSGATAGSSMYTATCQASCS

C[C@H]1c2nc(OCc3ccc(F)cc3Cl)c(C#N)cc2CCN1Cc1nc2c(Cl)cc(C(=O)O)cc2n1C[C@@H]1CCO1 [Compound I-182]
Emax: 119% | EC50: 0.173 nM

C[C@H]1c2nc(OCc3c(F)cc(F)cc3F)c(C#N)cc2CCN1Cc1nc2c(Cl)cc(C(=O)O)cc2n1C[C@@H]1CCO1 [Compound I-183]
Emax: 135% | EC50: 0.151 nM

C[C@H]1c2nc(OCc3ccc(Cl)cc3F)c(C#N)cc2CCN1Cc1nc2c(Cl)cc(C(=O)O)cc2n1C[C@@H]1CCO1 [Compound I-184]
Emax: 118% | EC50: 0.073 nM

C[C@H]1c2nc(OCc3c(F)cc(Cl)cc3F)c(C#N)cc2CCN1Cc1nc2c(Cl)cc(C(=O)O)cc2n1C[C@@H]1CCO1 [Compound I-185]
Emax: 122% | EC50: 0.0569 nM

C[C@H]1c2nc(OCc3ccc(OC(F)F)cc3F)c(C#N)cc2CCN1Cc1nc2c(Cl)cc(C(=O)O)cc2n1C[C@@H]1CCO1 [Compound I-186]
Emax: 123% | EC50: 0.466 nM

COc1cc(Cl)ccc1COc1nc2c(cc1C#N)CCN(Cc1nc3c(Cl)cc(C(=O)O)cc3n1C[C@@H]1CCO1)[C@H]2C [Compound I-187]
Emax: 137% | EC50: 0.04 nM

C[C@H]1c2nc(OCc3cc(F)c(Cl)cc3F)c(C#N)cc2CCN1Cc1nc2c(Cl)cc(C(=O)O)cc2n1C[C@@H]1CCO1 [Compound I-188]
Emax: 120% | EC50: 0.119 nM

C[C@H]1c2nc(OCc3ccc(Cl)cc3)c(C#N)cc2CCN1Cc1nc2c(Cl)cc(C(=O)O)cc2n1C[C@@H]1CCO1 [Compound I-189]
Emax: 124% | EC50: 0.222 nM

C[C@H]1c2nc(OCc3ccc(Cl)cc3F)c(C(F)(F)F)cc2CCN1Cc1nc2c(-c3cccnc3)cc(C(=O)O)cc2n1C[C@@H]1CCO1 [Compound I-190]
Emax: 93.3% | EC50: 4.29 nM

C[C@H]1c2nc(NCc3ncc(Cl)cc3F)c(C(F)(F)F)cc2CCN1Cc1nc2c(F)cc(C(=O)O)cc2n1C[C@@H]1CCO1 [Compound I-191]
Emax: 114% | EC50: 0.266 nM

C[C@H]1c2nc(NCc3ccc(C#N)cc3F)c(C(F)(F)F)cc2CCN1Cc1nc2c(F)cc(C(=O)O)cc2n1C[C@@H]1CCO1 [Compound I-193]
Emax: 110% | EC50: 0.211 nM

C[C@H]1c2nc(NCc3ccc(C#N)cc3F)c(C(F)(F)F)cc2CCN1Cc1nc2c(Cl)cc(C(=O)O)cc2n1C[C@@H]1CCO1 [Compound I-194]
Emax: 103% | EC50: 0.137 nM

COc1cc(C(=O)O)cc2c1nc(CN1CCc3cc(C(F)(F)F)c(NCc4ccc(C#N)cc4F)nc3[C@@H]1C)n2C[C@@H]1CCO1 [Compound I-195]
Emax: 123% | EC50: 0.0514 nM

C[C@H]1c2nc(NCc3ccc(Cl)cn3)c(C(F)(F)F)cc2CCN1Cc1nc2c(F)cc(C(=O)O)cc2n1C[C@@H]1CCO1 [Compound I-196]
Emax: 108% | EC50: 0.611 nM

C[C@H]1c2nc(NCc3ccc(Cl)cn3)c(C(F)(F)F)cc2CCN1Cc1nc2c(Cl)cc(C(=O)O)cc2n1C[C@@H]1CCO1 [Compound I-197]
Emax: 111% | EC50: 0.345 nM
